Experimental findings from US20230287051A1, “INHIBITORS OF COMPLEMENT FACTOR C3 AND THEIR MEDICAL USES” (ZP SPV 3 K/S, priority 2020, published 2023) are described below.

To fix the notation:
B1: Compound 10 (peptide)
peptide: Ac-SEFCI[Trp(1-Me)]QDW[Sar]EHRCTE[AEEA][AEEA]K([γGlu-Gly-γGlu-C18 diacid])-NH2
modifications: bridge 4-14 via methylene thioacetal (-S-CH2-S-)
notes: Synthetic compstatin analogue; also called Comp No 10
B2: Compound 9 (peptide)
peptide: Ac-SEFCI[Trp(1-Me)]QDW[Sar]EHRCTEGE[AEEA][AEEA]K([γGlu-Gly-γGlu-C18 diacid])-NH2
modifications: bridge 4-14 via methylene thioacetal ‑S‑CH2‑S‑ (CH2I2, DIPEA)
notes: Synthetic compstatin analogue; also called Comp No 9
B3: Compound 19 (peptide)
peptide: EGSEFCIWQDWGEHRCTEGE
modifications: N-terminal [15-Carboxy-pentadecanoyl]; 1-Me-Trp at 8; Cys6 and Cys16 bridged by methylene thioacetal (-S-CH2-S-); Sar at 12; C-terminal amide
notes: Synthetic compstatin analogue; also called Comp No 19
B4: Compound 20 (peptide)
peptide: Ac-EGSEFCI[Trp(1-Me)]QDW[Sar]EHRCTEGE[AEEA]ESK([γGlu-C18 diacid])-NH2
modifications: bridge 6-16 via methylene thioacetal (-S-CH2-S-)
notes: Synthetic compstatin analogue; also called Comp No 20
B5: Compound 28 (peptide)
peptide: Ac-GQSAFCI[Trp(1-Me)]QDW[Sar]EHRCTEGE[AEEA][AEEA]K([γGlu-Gly-γGlu-C18 diacid])-NH2
modifications: bridge 6-16 via methylene thioacetal (-S-CH2-S-)
notes: Synthetic compstatin analogue; also called Comp No 28
B6: Compound 29 (peptide)
peptide: H-ESGVFCI[Trp(1-Me)]QDW[Sar]EHRCTEGE[AEEA][AEEA]K([γGlu-Gly-γGlu-C18 diacid])-NH2
modifications: bridge 6-16 via methylene thioacetal (-S-CH2-S-)
notes: Synthetic compstatin analogue; also called Comp No 29
B7: Compound 27 (peptide)
peptide: Ac-EGESGFCI[Trp(1-Me)]QDW[Sar]EHRCTEGE[AEEA][AEEA]K([γGlu-Gly-γGlu-C18 diacid])-NH2
modifications: bridge 7-17 via methylene thioacetal (-S-CH2-S-)
notes: Synthetic compstatin analogue; also called Comp No 27

Numbered stars: 1 amine (or outer) side, 2 acyl side, 3 side chain; on linkers, the order of the positions; unused ones are H or OH. Bridge positions count the residues as written; N and C are the ends. Square brackets hold non-standard residues; d marks the D form. Side chains are listed from the residue outwards. Peptide text beside a SMILES is read from it. * marks the point of attachment. Trp(1-Me) = Cn1cc(C[C@H](N)C(=O)O)c2ccccc21; C18 diacid = O=C(O)CCCCCCCCCCCCCCCCC(=O)*; γGlu = O=C(O)[C@H](CCC(=O)[*:2])N[*:1]; AEEA = NCCOCCOCC(=O)O; CH2 = C([*:1])[*:2]; Sar = CNCC(=O)O

For one experiment, the system named is classical complement pathway. In words: In vitro haemolysis assay (inhibition of classical complement pathway). It is filed as cell-based. To be noted: human serum, sensitized sheep RBC, 30 minutes at 37° C., absorbance at 405 nm, n=>2; read-out: IC50, inhibition of hemolysis. As for the experimental part:
The in vitro effect of some of the compounds described herein was assessed by measuring their inhibitory effect of the classical complement pathway in a haemolysis assay.
Briefly, compounds described herein and reference compounds were dissolved in DMSO and diluted in Tris/Casein Assay Buffer (10 mM Tris, 145 mM NaCl, 0.5 mM MgCl2, 0.15 mM CaCl2, and 0.1% W/V casein, adjusted to pH 7.4) as 9-point serial dilutions in a 96-well plate. Sensitized sheep red blood cells (RBC) coated with rabbit anti-sheep erythrocyte antiserum (Complement Technology, Inc., TX, USA) were washed in Tris/asein Assay Buffer. 50 μL from each well of diluted compound was added to a 96-well plate containing 50 μL diluted human serum (Complement Technology, Inc., TX, USA) and incubated for 15 minutes at room temperature. The serum dilution factor was optimized for every serum batch to obtain 70-90% of maximal haemolysis using the protocol. Then 50 μL sensitized sheep RBCs were added to all wells ([…]).
After 30 minutes of incubation at 37° C. with gentle agitation, the reaction was stopped by addition of 50 μL Tris STOP Buffer per well (10 mM EDTA, 10 mM Tris, 145 mM NaCl adjusted to pH 7.4). The RBCs were then removed by centrifugation and the resulting supernatant measured for hemolysis by absorbance at 405 nm.
The response was normalized relative to a positive and negative control (vehicle) to calculate the IC50 (nM) from the concentration response curve using the 4-parameter logistic (4PL) nonlinear model for curve fitting (Table 2). All values are based on n=>2 independent determinations.
On to “Ac-EQEVF[C(1)]I[1-Me-Trp]QDW[Sar]EHR[C(1)]TEGE[Peg3][Peg3]-K([17-Carboxy-heptadecanoyl][yGlu]G[yGlu])-NH2 [Compound 22]”, for which the IC50 was under 100 nM. Still for that read-out and setting: the result for “Ac-EGSAY[C(1)]I[1-Me-Trp]QDWGEHR[C(1)][Sar]EK[yGlu]-K([17-Carboxy-heptadecanoyl][yGlu][Peg3][Peg3])-NH2 [Compound 3]” reads under 500 nM. Same read-out and setting: the result for “Ac-YEQAF[C(1)]I[1-Me-Trp]QDW[Sar]EHR[C(1)]TEGE[Peg3]ES-K([17-Carboxy-heptadecanoyl][yGlu]G[yGlu])-NH2 [Compound 30]” reads under 100 nM. Same read-out and setting: the result for `CC[C@H](C)[C@H](NC(=O)[C@H](N)Cc1ccc(O)cc1)C(=O)N[C@H]1CSSC[C@@H](C(=O)N(C)[C@H](C(N)=O)[C@@H](C)CC)NC(=O)[C@H](CCCNC(=N)N)NC(=O)[C@H](Cc2c[nH]cn2)NC(=O)[C@H](C)NC(=O)CN(C)C(=O)[C@H](Cc2c[nH]c3ccccc23)NC(=O)[C@H](CC(=O)O)NC(=O)[C@H](CCC(N)=O)NC(=O)[C@H](Cc2cn(C)c3ccccc23)NC(=O)[C@H](C(C)C)NC1=O` [Cp40, H-{d}YIC(*)V[1-Me-Trp]QDW[SarJAHRC(*)[N-Me-Ile]-NH2, reference compound] reads under 100 nM; that for “Ac-SEF[C(1)]IWQDW[Sar]EHR[C(1)]TEGE[Peg3]ES-K([17-Carboxy-heptadecanoyl][yGlu])-NH2 [Compound 16]”, under 1000 nM; that for `CC[C@H](C)[C@@H]1NC(=O)[C@@H](NC(=O)[C@H](Cc2ccccc2)NC(=O)[C@@H](NC(=O)[C@H](CCC(N)=O)NC(=O)[C@H](CO)NC(=O)[C@H](CCC(=O)O)NC(C)=O)C(C)C)CSCSC[C@@H](C(=O)N[C@H](C(=O)N[C@@H](CCC(=O)O)C(=O)NCC(=O)N[C@@H](CCC(=O)O)C(=O)NCCOCCOCC(=O)NCCOCCOCC(=O)N[C@@H](CCCCNC(=O)CC[C@H](NC(=O)CNC(=O)CC[C@H](NC(=O)CCCCCCCCCCCCCCCCC(=O)O)C(=O)O)C(=O)O)C(N)=O)[C@@H](C)O)NC(=O)[C@H](CCCNC(=N)N)NC(=O)[C@H](Cc2c[nH]cn2)NC(=O)[C@H](CCC(=O)O)NC(=O)CN(C)C(=O)[C@H](Cc2c[nH]c3ccccc23)NC(=O)[C@H](CC(=O)O)NC(=O)[C@H](CCC(N)=O)NC(=O)[C@H](Cc2cn(C)c3ccccc23)NC1=O` [Compound 23, Ac-ESQVF[C(1)]I[1-Me-Trp]QDW[Sar]EHR[C(1)]TEGE[Peg3][Peg3]-K([17-Carboxy-heptadecanoyI][yGlu]G[yGlu])-NH2] (Ac-ESQVFCI[Trp(1-Me)]QDW[Sar]EHRCTEGE[AEEA][AEEA]K([γGlu-Gly-γGlu-C18 diacid])-NH2; linker 6-16 via CH2), under 100 nM. For “Ac-SEY[C(1)]I[1-Me-Trp]QDW[Sar]EHR[C(1)]TEGE[Peg3]ES-K([17-Carboxy-heptadecanoyl][yGlu])-NH2 [Compound 18]”, the IC50 was under 250 nM. The same measure, in the same setting: the result for “Ac-GEF[C(1)]I[1-Me-Trp]QDWGEHR[C(1)][Sar]EAE[Peg3][Peg3]-K([17-Carboxy-heptadecanoyl][yGlu]G[yGlu])-NH2 [Compound 6]” reads under 500 nM; that for “Ac-SEF[C(1)]I[1-Me-Trp]QDW[Sar]EHR[C(1)][Sar]E[Peg3][Peg3]-K([17-Carboxy-heptadecanoyl]-[yGlu]G[yGlu]-NH2 [Compound 8]”, under 500 nM; that for “Ac-KSGEF[C(1)]I[1-Me-Trp]QDW[Sar]EHR[C(1)]TEGE[Peg3][Peg3]-K([17-Carboxy-heptadecanoyl][yGlu]G[yGlu])-NH2 [Compound 21]”, under 100 nM. As to “Ac-SEFC(2)I[1-Me-Trp]QDWGEHRC(2)TGAES-NH2 [Compound 31]”, the IC50 was under 250 nM.

With “Ac-SEF[C(1)]IYQDW[Sar]EHR[C(1)]TEGE[Peg3]ES-K([17-Carboxy-heptadecanoy!][yGlu])-NH2 [Compound 17]”, the concentration for half-maximal inhibition (IC50) was under 500 nM. Same read-out and setting: to `CC[C@H](C)[C@@H]1NC(=O)[C@@H](NC(=O)[C@H](Cc2ccccc2)NC(=O)[C@H](C)NC(=O)[C@H](CCC(N)=O)NC(=O)[C@H](CCC(=O)O)NC(=O)[C@H](CO)NC(C)=O)CSCSC[C@@H](C(=O)N[C@H](C(=O)N[C@@H](CCC(=O)O)C(=O)NCC(=O)N[C@@H](CCC(=O)O)C(=O)NCCOCCOCC(=O)NCCOCCOCC(=O)N[C@@H](CCCCNC(=O)CC[C@H](NC(=O)CNC(=O)CC[C@H](NC(=O)CCCCCCCCCCCCCCCCC(=O)O)C(=O)O)C(=O)O)C(N)=O)[C@@H](C)O)NC(=O)[C@H](CCCNC(=N)N)NC(=O)[C@H](Cc2c[nH]cn2)NC(=O)[C@H](CCC(=O)O)NC(=O)CN(C)C(=O)[C@H](Cc2c[nH]c3ccccc23)NC(=O)[C@H](CC(=O)O)NC(=O)[C@H](CCC(N)=O)NC(=O)[C@H](Cc2cn(C)c3ccccc23)NC1=O` [Compound 25, Ac-SEQAF[C(1)]I[1-Me-Trp]QDW[Sar]EHR[C(1)]TEGE[Peg3][Peg3]-K([17-Carboxy-heptadecanoyl][yGlu]G[yGlu])-NH2] (Ac-SEQAFCI[Trp(1-Me)]QDW[Sar]EHRCTEGE[AEEA][AEEA]K([γGlu-Gly-γGlu-C18 diacid])-NH2; linker 6-16 via CH2) belongs under 100 nM.

Turning to “Ac-SEF[C(1)]I[1-Me-Trp]QDWGEHR[C(1)]TEGE[Peg3]ES-K([17-Carboxy-heptadecanoyl]-[yGlu]-NH2 [Compound 5]”, the IC50 was under 500 nM. The same measure, in the same setting: to “Ac-SEF[C(1)]I[1-Me-Trp]QDW[SarJAHR[C(1)]TEGE[Peg3]ES-K([17-Carboxy-heptadecanoyl][yGlu])-NH2 [Compound 13]” belongs under 250 nM. On the same count and under the same terms, to “Ac-SEF[C(1)]I[1-Me-Trp]QDWGEHR[C(1)][Sar]EGA-K([17-Carboxy-heptadecanoyl]-[yGlu]G[Peg3][yGlu][Peg3]-NH2 [Compound 4]” belongs under 500 nM; to “Ac-SEF[C(1)]I[[1-Me-Trp]QDW[Sar]EHR[C(1)]TEGE[Peg3]ES-K([17-Carboxy-heptadecanoyl][yGlu])-NH2 [Compound 11]”, under 250 nM.

In a further experiment the target is Human C3 (Complement tech cat #A113c) (human, UniProt P01024 23-1663). In words: cell-based or functional assay.
Chain of Human C3 (Complement tech cat #A113c) (P01024 23-1663 limits assumed): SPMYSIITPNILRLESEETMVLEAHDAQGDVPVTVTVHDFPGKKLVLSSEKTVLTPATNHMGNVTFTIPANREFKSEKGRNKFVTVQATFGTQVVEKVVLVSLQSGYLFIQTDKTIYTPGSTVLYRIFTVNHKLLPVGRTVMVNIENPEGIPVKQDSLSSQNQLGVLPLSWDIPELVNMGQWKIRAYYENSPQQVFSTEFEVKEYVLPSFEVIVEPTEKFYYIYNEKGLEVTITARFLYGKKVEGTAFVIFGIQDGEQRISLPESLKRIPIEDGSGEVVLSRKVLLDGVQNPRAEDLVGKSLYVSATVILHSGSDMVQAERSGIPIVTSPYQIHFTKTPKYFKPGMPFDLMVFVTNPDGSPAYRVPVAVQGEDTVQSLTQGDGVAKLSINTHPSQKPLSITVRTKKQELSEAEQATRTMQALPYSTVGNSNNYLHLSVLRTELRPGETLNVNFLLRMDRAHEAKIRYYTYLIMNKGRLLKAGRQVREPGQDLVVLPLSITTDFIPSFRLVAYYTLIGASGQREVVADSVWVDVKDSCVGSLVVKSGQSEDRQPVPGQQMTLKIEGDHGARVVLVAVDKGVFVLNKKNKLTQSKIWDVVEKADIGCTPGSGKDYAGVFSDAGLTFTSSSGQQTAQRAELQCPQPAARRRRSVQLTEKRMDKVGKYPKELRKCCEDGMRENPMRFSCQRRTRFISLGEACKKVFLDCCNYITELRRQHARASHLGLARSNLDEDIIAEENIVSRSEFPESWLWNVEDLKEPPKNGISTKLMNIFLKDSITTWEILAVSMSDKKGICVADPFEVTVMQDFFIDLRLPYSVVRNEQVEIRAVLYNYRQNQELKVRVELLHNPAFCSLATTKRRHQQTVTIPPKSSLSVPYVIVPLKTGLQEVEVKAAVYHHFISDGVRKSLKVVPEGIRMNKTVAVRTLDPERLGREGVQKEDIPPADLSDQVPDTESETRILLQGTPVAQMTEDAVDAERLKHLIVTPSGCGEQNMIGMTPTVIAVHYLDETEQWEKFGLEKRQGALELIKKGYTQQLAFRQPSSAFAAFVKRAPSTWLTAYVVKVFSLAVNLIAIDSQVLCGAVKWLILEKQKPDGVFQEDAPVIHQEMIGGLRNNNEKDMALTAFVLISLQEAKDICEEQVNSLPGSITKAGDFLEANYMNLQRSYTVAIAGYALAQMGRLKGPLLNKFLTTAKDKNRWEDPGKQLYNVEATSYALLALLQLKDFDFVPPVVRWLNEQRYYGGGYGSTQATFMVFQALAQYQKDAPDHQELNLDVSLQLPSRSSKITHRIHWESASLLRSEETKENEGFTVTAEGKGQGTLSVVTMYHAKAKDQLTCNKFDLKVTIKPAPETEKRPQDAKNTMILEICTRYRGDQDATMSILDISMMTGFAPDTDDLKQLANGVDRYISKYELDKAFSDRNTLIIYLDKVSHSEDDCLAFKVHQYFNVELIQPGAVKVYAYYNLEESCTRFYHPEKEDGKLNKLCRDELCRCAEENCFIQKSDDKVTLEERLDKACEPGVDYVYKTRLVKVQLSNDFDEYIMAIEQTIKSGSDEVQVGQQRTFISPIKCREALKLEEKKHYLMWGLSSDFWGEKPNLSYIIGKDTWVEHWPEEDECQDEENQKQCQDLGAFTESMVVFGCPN
Details: not given
B1: the “IC50 [nM], in vitro inhibition of hemolysis (classical complement pathway; human serum, sensitized sheep RBC)” value is under 250 nM.

For B2, the “IC50 [nM], in vitro inhibition of hemolysis (classical complement pathway; human serum, sensitized sheep RBC)” value is under 250 nM. Still for that read-out and setting: the result for B3 reads under 250 nM; that for B4, under 250 nM; that for B5, under 100 nM. On the same count and under the same terms, to B6 belongs under 100 nM. On the same count and under the same terms, to B7 belongs under 100 nM.

A word on the IC50: it is the concentration that gives 50% inhibition.
